# Source: US8802720B2, “Acylamino-substituted fused cyclopentanecarboxylic acid derivatives and their use as pharmaceuticals” (SANOFI, priority 2008, dated 2014)
# Target: human Edg-2 receptor (LPA1 receptor) (Homo sapiens, UniProt Q92633)
# Assay: Edg-2 receptor inhibition by FLIPR calcium fluorescence measurement (LPA-mediated calcium liberation)
# Format: cell-based
# Conditions: CHO cells stably overexpressing human Edg-2 receptor; LPA 18:1 100 nM; fluo-4 fluorescence; triplicate; read-out: Inhibitory concentrations IC50 for inhibition of the Edg-2 receptor
# Method in brief: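 CHO cells stably overexpressing human Edg-2 were fluo-4 loaded and pre-incubated ~5 min with compound (≤0.3% DMSO) in HBSS/HEPES/probenecid, pH 7.5. Then LPA 18:1 at 100 nM final was added. Peak calcium fluorescence over ~3 min, baseline-corrected versus DMSO, gave % inhibition in triplicate and IC50.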
# human Edg-2 receptor (LPA1 receptor), sequence (Q92633 whole entry): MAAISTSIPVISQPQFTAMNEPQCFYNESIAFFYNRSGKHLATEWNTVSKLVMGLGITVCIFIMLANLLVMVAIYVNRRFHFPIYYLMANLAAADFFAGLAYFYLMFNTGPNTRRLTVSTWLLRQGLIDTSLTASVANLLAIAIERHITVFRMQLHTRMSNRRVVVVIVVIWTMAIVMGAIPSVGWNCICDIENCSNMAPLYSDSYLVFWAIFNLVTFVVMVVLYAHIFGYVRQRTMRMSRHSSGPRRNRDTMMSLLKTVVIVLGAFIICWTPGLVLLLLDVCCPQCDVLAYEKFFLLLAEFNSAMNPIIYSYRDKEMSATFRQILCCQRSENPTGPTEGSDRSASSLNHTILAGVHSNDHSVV
row,Structure (SMILES),IC50
1,"COc1ccc(C(=O)NC2(C(=O)O)Cc3ccc(F)cc3C2)cc1OCCc1cccc(C)c1 (centres unmarked) [Example 157, 5-Fluoro-2-[4-methoxy-3-(2-m-tolyl-ethoxy)-benzoylamino]-indane-2-carboxylic acid]",< 100 nM
2,"COc1ccc(C(=O)NC2(C(=O)O)Cc3cc(C)c(C)cc3C2)cc1OCCc1cccc(C)c1 [Example 158, 2-[4-Methoxy-3-(2-m-tolyl-ethoxy)-benzoylamino]-5,6-dimethyl-indane-2-carboxylic acid]",100 to 1000 nM
3,"COc1ccc2c(c1)CC(NC(=O)c1ccc(OC)c(OCCc3cccc(C)c3)c1)(C(=O)O)C2 (centres unmarked) [Example 159, 5-Methoxy-2-[4-methoxy-3-(2-m-tolyl-ethoxy)-benzoylamino]-indane-2-carboxylic acid]",< 100 nM
4,"COc1cc(C(=O)NC2(C(=O)O)Cc3ccccc3C2)ccc1OCCc1cccc(Cl)c1 [Example 161, 2-{4-[2-(3-Chloro-phenyl)-ethoxy]-3-methoxy-benzoylamino}-indane-2-carboxylic acid]",1000 to 30000 nM
5,"COc1cc(C(=O)NC2(C(=O)O)Cc3ccccc3C2)ccc1OCCc1ccccc1Cl [Example 162, 2-{4-[2-(2-Chloro-phenyl)-ethoxy]-3-methoxy-benzoylamino}-indane-2-carboxylic acid]",1000 to 30000 nM
6,"Cc1cccc(CCOc2cc(C(=O)NC3(C(=O)O)Cc4ccccc4C3)ccc2N)c1 [Example 163, 2-[4-Amino-3-(2-m-tolyl-ethoxy)-benzoylamino]-indane-2-carboxylic acid]",100 to 1000 nM
7,"CNc1ccc(C(=O)NC2(C(=O)O)Cc3ccccc3C2)cc1OCCc1cccc(C)c1 [Example 164, 2-[4-Methylamino-3-(2-m-tolyl-ethoxy)-benzoylamino]-indane-2-carboxylic acid]",< 100 nM
8,"Cc1cccc(CCOc2cc(C(=O)NC3(C(=O)O)Cc4ccccc4C3)ccc2N(C)C)c1 [Example 165, 2-[4-Dimethylamino-3-(2-m-tolyl-ethoxy)-benzoylamino]-indane-2-carboxylic acid]",100 to 1000 nM
9,"Cc1cccc(CCOc2cc(C(=O)NC3(C(=O)O)Cc4ccccc4C3)ccc2NC(C)C)c1 [Example 166, 2-[4-Isopropylamino-3-(2-m-tolyl-ethoxy)-benzoylamino]-indane-2-carboxylic acid]",100 to 1000 nM
10,"COc1ccc(C(=O)NC2(C(=O)O)Cc3ccccc3C2)cc1OCC(O)c1ccccc1F (centres unmarked) [Example 167, 2-{3-[2-(2-Fluoro-phenyl)-2-hydroxy-ethoxy]-4-methoxy-benzoylamino}-indane-2-carboxylic acid]",1000 to 30000 nM
11,"Cc1cccc(CCOc2cc(C(=O)NC3(C(=O)O)Cc4ccccc4C3)ccc2C#N)c1 [Example 168, 2-[4-Cyano-3-(2-m-tolyl-ethoxy)-benzoylamino]-indane-2-carboxylic acid]",< 100 nM
12,"COc1ccc(C(=O)NC2(C(=O)O)Cc3ccccc3C2)cc1CCCc1ccccc1 [Example 169, 2-[4-Methoxy-3-(3-phenyl-propyl)-benzoylamino]-indane-2-carboxylic acid]",100 to 1000 nM
13,"COc1ccc(C(=O)NC2(C(=O)O)Cc3ccccc3C2)cc1NCCc1cccc(C)c1 [Example 171, 2-[4-Methoxy-3-(2-m-tolyl-ethylamino)-benzoylamino]-indane-2-carboxylic acid]",< 100 nM
14,"COc1ccc(C(=O)NC2(C(=O)O)Cc3ccccc3C2)cc1N(C)CCc1cccc(C)c1 [Example 172, 2-{4-Methoxy-3-[methyl-(2-m-tolyl-ethyl)-amino]-benzoylamino}-indane-2-carboxylic acid]",1000 to 30000 nM
15,"Cc1cccc(CCNc2cc(C(=O)NC3(C(=O)O)Cc4ccccc4C3)ccc2C#N)c1 [Example 173, 2-[4-Cyano-3-(2-m-tolyl-ethylamino)-benzoylamino]-indane-2-carboxylic acid]",1000 to 30000 nM
16,"N#Cc1ccc(C(=O)NC2(C(=O)O)Cc3ccccc3C2)cc1N1CCC(c2ccccc2)C1 (centres unmarked) [Example 174, 2-[4-Cyano-3-[3-phenyl-pyrrolidin-1-yl)-benzoylamino]-indane-2-carboxylic acid]",1000 to 30000 nM
17,"N#Cc1ccc(C(=O)NC2(C(=O)O)Cc3ccccc3C2)cc1NCCc1ccccc1F [Example 175, 2-{4-Cyano-3-[2-(2-fluoro-phenyl)-ethylamino]-benzoylamino}-indane-2-carboxylic acid]",1000 to 30000 nM
18,"Cc1ccc(C(=O)NC2(C(=O)O)Cc3ccccc3C2)cc1OCCc1cccc(Cl)c1 [Example 176, 2-{3-[2-(3-Chloro-phenyl)-ethoxy]-4-methyl-benzoylamino}-indane-2-carboxylic acid]",< 100 nM
19,"Cc1ccc(C(=O)NC2(C(=O)O)Cc3ccccc3C2)cc1OCCc1ccccc1F [Example 177, 2-{3-[2-(2-Fluoro-phenyl)-ethoxy]-4-methyl-benzoylamino}-indane-2-carboxylic acid]",100 to 1000 nM
20,"CCOc1ccc(C(=O)NC2(C(=O)O)Cc3ccccc3C2)cc1NCCc1cccc(C)c1 [Example 178, 2-[4-Ethoxy-3-(2-m-tolyl-ethylamino)-benzoylamino]-indane-2-carboxylic acid]",1000 to 30000 nM
21,"Cc1cccc(CCNc2cc(C(=O)NC3(C(=O)O)Cc4ccccc4C3)ccc2O)c1 [Example 179, 2-[4-Hydroxy-3-(2-m-tolyl-ethylamino)-benzoylamino]-indane-2-carboxylic acid]",100 to 1000 nM
22,"COc1ccc(C(=O)NC2(C(=O)O)Cc3ccccc3C2)cc1SCCc1cccc(C)c1 [Example 180, 2-[4-Methoxy-3-(2-m-tolyl-ethylsulfanyl)-benzoylamino]-indane-2-carboxylic acid]",< 100 nM

row,Structure (SMILES),IC50
1,"COc1ccc(C(=O)NC2(C(=O)O)Cc3ccccc3C2)cc1SCCc1cccc(Cl)c1 [Example 181, 2-{3-[2-(3-Chloro-phenyl)-ethylsulfanyl]-4-methoxy-benzoylamino}-indane-2-carboxylic acid]",< 100 nM
2,"COc1ccc(C(=O)NC2(C(=O)O)Cc3ccccc3C2)cc1SCc1ccccc1 [Example 182, 2-(3-Benzylsulfanyl-4-methoxy-benzoylamino)-indane-2-carboxylic acid]",1000 to 30000 nM
3,"COc1ccc(C(=O)NC2(C(=O)O)Cc3ccccc3C2)cc1S(=O)(=O)CCc1cccc(C)c1 [Example 183, 2-[4-Methoxy-3-(2-m-tolyl-ethanesulfonyl)-benzoylamino]-indane-2-carboxylic acid]",1000 to 30000 nM
4,"COc1ccc(C(=O)NC2(C(=O)O)Cc3ccccc3C2)cc1S(=O)(=O)CCc1cccc(Cl)c1 [Example 184, 2-{3-[2-(3-Chloro-phenyl)-ethanesulfonyl]-4-methoxy-benzoylamino}-indane-2-carboxylic acid]",1000 to 30000 nM
5,"Cc1cccc(CCOc2cc(C(=O)NC3(C(=O)O)Cc4ccccc4C3)ccc2C(F)(F)F)c1 [Example 185, 2-[3-(2-m-Tolyl-ethoxy)-4-trifluoromethyl-benzoylamino]-indane-2-carboxylic acid]",< 100 nM
6,"O=C(NC1(C(=O)O)Cc2ccccc2C1)c1ccc(C(F)(F)F)c(OCCc2cccc(Cl)c2)c1 [Example 186, 2-{3-[2-(3-chloro-phenyl)-ethoxy]-4-trifluoromethyl-benzoylamino}-indane-2-carboxylic acid]",< 100 nM
7,O=C(NC1(C(=O)O)Cc2ccccc2C1)c1ccc(C(F)(F)F)c(OCCc2c(F)cccc2Cl)c1 [Example 187],< 100 nM
8,O=C(NC1(C(=O)O)Cc2ccccc2C1)c1ccc(C(F)(F)F)c(OCCc2cc(F)ccc2F)c1 [Example 188],< 100 nM
9,O=C(NC1(C(=O)O)Cc2ccccc2C1)c1ccc(C(F)(F)F)c(OCCc2cc(Cl)ccc2F)c1 [Example 189],< 100 nM
10,Cc1nccnc1CCOc1cc(C(=O)NC2(C(=O)O)Cc3ccccc3C2)ccc1C(F)(F)F [Example 190],1000 to 30000 nM
11,O=C(NC1(C(=O)O)Cc2ccccc2C1)c1ccc(C(F)(F)F)c(OCCc2cc(C(F)(F)F)ccc2F)c1 [Example 191],< 100 nM
12,Cc1ccc(F)c(CCOc2cc(C(=O)NC3(C(=O)O)Cc4ccccc4C3)ccc2C(F)(F)F)c1 [Example 192],< 100 nM
13,"COc1ccc(C(=O)NC2(C(=O)O)Cc3ccccc3C2)cc1OCCc1cc(Cl)ccc1F [Example 193, 2-{3-[2-(5-Chloro-2-fluoro-phenyl)-ethoxy]-4-methoxy-benzoylamino}-indane-2-carboxylic acid]",< 100 nM
14,"COc1ccc(C(=O)NC2(C(=O)O)Cc3ccccc3C2)cc1C#Cc1ccc(C(F)(F)F)cc1 [Example 194, 2-[4-Methoxy-3-(4-trifluoromethyl-phenylethynyl)-benzoylamino]-indane-2-carboxylic acid]",1000 to 30000 nM
15,"COc1ccc(C(=O)NC2(C(=O)O)Cc3ccccc3C2)cc1C#Cc1ccc(C(C)(C)C)cc1 [Example 195, 2-[3-(4-tert-Butyl-phenylethynyl)-4-methoxy-benzoylamino]-indane-2-carboxylic acid]",100 to 1000 nM
16,"COc1ccc(C(=O)NC2(C(=O)O)Cc3ccccc3C2)cc1-c1cccc(C(C)C)c1 [Example 196, 2-[(3′-Isopropyl-6-methoxy-biphenyl-3-carbonyl)-amino]-indane-2-carboxylic acid]",< 100 nM
17,COc1ccc(C(=O)NC2(C(=O)O)Cc3ccccc3C2)cc1-c1ccc(CC(C)C)cc1 [Example 197],1000 to 30000 nM
18,COc1ccc(C(=O)NC2(C(=O)O)Cc3ccccc3C2)cc1-c1cccc(Cl)c1 [Example 198],< 100 nM
19,"COc1ccc(C(=O)NC2(C(=O)O)Cc3ccccc3C2)cc1-c1cccc(CC#N)c1 [Example 199, 2-[(3′-cyanomethyl-6-methoxy-biphenyl-3-carbonyl)-amino]-indane-2-carboxylic acid]",< 100 nM
20,COc1ccc(C(=O)NC2(C(=O)O)Cc3ccccc3C2)cc1-c1cccc(C(F)(F)F)c1 [Example 200],< 100 nM
21,COc1ccc(C(=O)NC2(C(=O)O)Cc3ccccc3C2)cc1-c1ccc(C(C)(C)C)cc1 [Example 201],1000 to 30000 nM
22,CCc1cccc(-c2cc(C(=O)NC3(C(=O)O)Cc4ccccc4C3)ccc2OC)c1 [Example 202],< 100 nM
